Measurements from ChEMBL document CHEMBL4813981, “Synthesis and in vitro antibacterial activity of new aminothiazole-oximepiperidone cephalosporins” (2021).
In brackets after ≈: the same amount, converted by molar mass.

Experiments:
Type in all cases: functional
Escherichia coli [1] = test: Antibacterial activity against ESBLs negative Carbapenem-sensitive Escherichia coli 17-16 assessed as reduction in bacterial growth
Klebsiella pneumoniae [2] = test: Antibacterial activity against Carbapenem- resistant Klebsiella pneumoniae KR 15-6 assessed as reduction in bacterial growth
Escherichia coli [3] = test: Antibacterial activity against ESBLs positive Carbapenem-sensitive Escherichia coli 17-6 assessed as reduction in bacterial growth
Klebsiella pneumoniae [4] = test: Antibacterial activity against Carbapenem- resistant Klebsiella pneumoniae KR 15-8 assessed as reduction in bacterial growth
Pseudomonas aeruginosa [5] = test: Antibacterial activity against Carbapenem- sensitive Pseudomonas aeruginosa 17-21 assessed as reduction in bacterial growth
Klebsiella pneumoniae [6] = test: Antibacterial activity against Carbapenem- sensitive Klebsiella pneumoniae 17-11 overexpressing extended spectrum beta-lactamases assessed as reduction in bacterial growth
Klebsiella pneumoniae [7] = test: Antibacterial activity against Carbapenem- sensitive Klebsiella pneumoniae 17-14 overexpressing extended spectrum beta-lactamases assessed as reduction in bacterial growth
Pseudomonas aeruginosa [8] = test: Antibacterial activity against Carbapenem- resistant Pseudomonas aeruginosa 17-5 assessed as reduction in bacterial growth
Pseudomonas aeruginosa [9] = test: Antibacterial activity against Carbapenem- sensitive Pseudomonas aeruginosa 17-26 assessed as reduction in bacterial growth
Klebsiella pneumoniae [10] = test: Antibacterial activity against Carbapenem- sensitive Klebsiella pneumoniae 17-4 overexpressing extended spectrum beta-lactamases assessed as reduction in bacterial growth
Pseudomonas aeruginosa [11] = test: Antibacterial activity against Carbapenem- sensitive Pseudomonas aeruginosa 17-29 assessed as reduction in bacterial growth
Escherichia coli [12] = test: Antibacterial activity against Escherichia coli ATCC 25922 assessed as reduction in bacterial growth
Enterobacter cloacae [13] = test: Antibacterial activity against Enterobacter cloacae 17-2 assessed as reduction in bacterial growth
Klebsiella pneumoniae [14] = test: Antibacterial activity against ESBLs negative Carbapenem-sensitive Klebsiella pneumoniae 17-16 assessed as reduction in bacterial growth
Escherichia coli [15] = test: Antibacterial activity against ESBLs positive Carbapenem-sensitive Escherichia coli 17-22 assessed as reduction in bacterial growth
Klebsiella pneumoniae [16] = test: Antibacterial activity against Carbapenem- sensitive Klebsiella pneumoniae 17-12 overexpressing extended spectrum beta-lactamases assessed as reduction in bacterial growth
Enterobacter cloacae [17] = test: Antibacterial activity against Enterobacter cloacae 17-9 assessed as reduction in bacterial growth
Klebsiella pneumoniae [18] = test: Antibacterial activity against Carbapenem- sensitive Klebsiella pneumoniae 17-15 overexpressing extended spectrum beta-lactamases assessed as reduction in bacterial growth
Enterobacter cloacae [19] = test: Antibacterial activity against Enterobacter cloacae 17-10 assessed as reduction in bacterial growth
Klebsiella pneumoniae [20] = test: Antibacterial activity against Carbapenem- resistant Klebsiella pneumoniae KR 15-13 assessed as reduction in bacterial growth
Acinetobacter baumannii [21] = test: Antibacterial activity against Carbapenem- resistant Acinetobacter baumannii 17-11 assessed as reduction in bacterial growth
Escherichia coli [22] = test: Antibacterial activity against ESBLs negative Carbapenem-sensitive Escherichia coli 17-1 assessed as reduction in bacterial growth
Klebsiella pneumoniae [23] = test: Antibacterial activity against Carbapenem- sensitive Klebsiella pneumoniae 17-9 overexpressing extended spectrum beta-lactamases assessed as reduction in bacterial growth
Enterobacter cloacae [24] = test: Antibacterial activity against Enterobacter cloacae 17-3 assessed as reduction in bacterial growth
Klebsiella aerogenes [25] = test: Antibacterial activity against Enterobacter aerogenes 17-2 assessed as reduction in bacterial growth
Enterobacter cloacae [26] = test: Antibacterial activity against Enterobacter cloacae 17-1 assessed as reduction in bacterial growth
Klebsiella pneumoniae [27] = test: Antibacterial activity against Carbapenem- resistant Klebsiella pneumoniae KR 15-10 assessed as reduction in bacterial growth
Klebsiella pneumoniae [28] = test: Antibacterial activity against Carbapenem- sensitive Klebsiella pneumoniae 17-6 overexpressing extended spectrum beta-lactamases assessed as reduction in bacterial growth
Escherichia coli [29] = test: Antibacterial activity against ESBLs positive Carbapenem-sensitive Escherichia coli 17-10 assessed as reduction in bacterial growth
Pseudomonas aeruginosa [30] = test: Antibacterial activity against Carbapenem- resistant Pseudomonas aeruginosa 17-1 assessed as reduction in bacterial growth
Acinetobacter baumannii [31] = test: Antibacterial activity against Carbapenem- resistant Acinetobacter baumannii 17-6 assessed as reduction in bacterial growth
Escherichia coli [32] = test: Antibacterial activity against ESBLs positive Carbapenem-sensitive Escherichia coli 17-8 assessed as reduction in bacterial growth
Acinetobacter baumannii [33] = test: Antibacterial activity against Carbapenem- resistant Acinetobacter baumannii 17-2 assessed as reduction in bacterial growth
Escherichia coli [34] = test: Antibacterial activity against ESBLs positive Carbapenem-sensitive Escherichia coli 17-3 assessed as reduction in bacterial growth
Klebsiella pneumoniae [35] = test: Antibacterial activity against ESBLs negative Carbapenem-sensitive Klebsiella pneumonia 15-2 assessed as reduction in bacterial growth
Acinetobacter baumannii [36] = test: Antibacterial activity against Carbapenem- resistant Acinetobacter baumannii 17-3 assessed as reduction in bacterial growth
Klebsiella pneumoniae [37] = test: Antibacterial activity against Carbapenem- resistant Klebsiella pneumoniae KR 15-9 assessed as reduction in bacterial growth
Escherichia coli [38] = test: Antibacterial activity against ESBLs positive Carbapenem-sensitive Escherichia coli 17-14 assessed as reduction in bacterial growth
Klebsiella aerogenes [39] = test: Antibacterial activity against Enterobacter aerogenes 15-5 assessed as reduction in bacterial growth
Escherichia coli [40] = test: Antibacterial activity against ESBLs positive Carbapenem-sensitive Escherichia coli 17-2 assessed as reduction in bacterial growth
Klebsiella pneumoniae [41] = test: Antibacterial activity against Carbapenem- sensitive Klebsiella pneumoniae 17-10 overexpressing extended spectrum beta-lactamases assessed as reduction in bacterial growth
Escherichia coli [42] = test: Antibacterial activity against ESBLs positive Carbapenem-sensitive Escherichia coli 17-12 assessed as reduction in bacterial growth
Klebsiella pneumoniae [43] = test: Antibacterial activity against Carbapenem- resistant Klebsiella pneumoniae KR 15-7 assessed as reduction in bacterial growth
Acinetobacter baumannii [44] = test: Antibacterial activity against Carbapenem- resistant Acinetobacter baumannii 17-9 assessed as reduction in bacterial growth
Escherichia coli [45] = test: Antibacterial activity against ESBLs negative Carbapenem-sensitive Escherichia coli 17-9 assessed as reduction in bacterial growth
Klebsiella aerogenes [46] = test: Antibacterial activity against Enterobacter aerogenes 17-3 assessed as reduction in bacterial growth
Enterobacter cloacae [47] = test: Antibacterial activity against Enterobacter cloacae 17-5 assessed as reduction in bacterial growth
Klebsiella aerogenes [48] = test: Antibacterial activity against Enterobacter aerogenes 17-1 assessed as reduction in bacterial growth
Escherichia coli [49] = test: Antibacterial activity against ESBLs positive Carbapenem-sensitive Escherichia coli 17-15 assessed as reduction in bacterial growth
Pseudomonas aeruginosa [50] = test: Antibacterial activity against Carbapenem- sensitive Pseudomonas aeruginosa 17-7 assessed as reduction in bacterial growth
Klebsiella aerogenes [51] = test: Antibacterial activity against Enterobacter aerogenes 15-7 assessed as reduction in bacterial growth
Klebsiella pneumoniae [52] = test: Antibacterial activity against Carbapenem- sensitive Klebsiella pneumoniae 17-3 overexpressing extended spectrum beta-lactamases assessed as reduction in bacterial growth
Pseudomonas aeruginosa [53] = test: Antibacterial activity against Carbapenem- resistant Pseudomonas aeruginosa 17-8 assessed as reduction in bacterial growth
Escherichia coli [54] = test: Antibacterial activity against ESBLs positive Carbapenem-sensitive Escherichia coli 17-21 assessed as reduction in bacterial growth

CC(C)(O/N=C(\C(=O)N[C@@H]1C(=O)N2C(C(=O)[O-])=C(C[n+]3ccccc3)CS[C@H]12)c1csc(N)n1)C(=O)O [CEFTAZIDIME] showed an MIC (Escherichia coli [1]) of 0.5 µg/mL (≈ 0.915 µM), an MIC (Klebsiella pneumoniae [2]) of 32 µg/mL (≈ 58.5 µM) and an MIC (Escherichia coli [3]) of 32 µg/mL (≈ 58.5 µM). The MIC (Klebsiella pneumoniae [4]) was > 64 µg/mL, the MIC (Pseudomonas aeruginosa [5]) was 4 µg/mL (≈ 7.32 µM) and the MIC (Klebsiella pneumoniae [6]) was 8 µg/mL (≈ 14.6 µM). For the same compound, the MIC (Klebsiella pneumoniae [7]) was 2 µg/mL (≈ 3.66 µM), the MIC (Pseudomonas aeruginosa [8]) was 64 µg/mL (≈ 117 µM) and the MIC (Pseudomonas aeruginosa [9]) was 1 µg/mL (≈ 1.83 µM). The MIC (Klebsiella pneumoniae [10]) was > 64 µg/mL, the MIC (Pseudomonas aeruginosa [11]) was 1 µg/mL (≈ 1.83 µM) and the MIC (Escherichia coli [12]) was 0.06 µg/mL (≈ 0.11 µM). The MIC (Enterobacter cloacae [13]) was 64 µg/mL (≈ 117 µM), the MIC (Klebsiella pneumoniae [14]) was 2 µg/mL (≈ 3.66 µM) and the MIC (Escherichia coli [15]) was > 64 µg/mL. For the same compound, the MIC (Klebsiella pneumoniae [16]) was 4 µg/mL (≈ 7.32 µM), the MIC (Enterobacter cloacae [17]) was 0.5 µg/mL (≈ 0.915 µM) and the MIC (Klebsiella pneumoniae [18]) was 32 µg/mL (≈ 58.5 µM). For the same compound, the MIC (Enterobacter cloacae [19]) was 1 µg/mL (≈ 1.83 µM), the MIC (Klebsiella pneumoniae [20]) was 64 µg/mL (≈ 117 µM) and the MIC (Acinetobacter baumannii [21]) was 32 µg/mL (≈ 58.5 µM). For the same compound, the MIC (Escherichia coli [22]) was 64 µg/mL (≈ 117 µM), the MIC (Klebsiella pneumoniae [23]) was 64 µg/mL (≈ 117 µM) and the MIC (Enterobacter cloacae [24]) was 1 µg/mL (≈ 1.83 µM). The MIC (Klebsiella aerogenes [25]) was 16 µg/mL (≈ 29.3 µM), the MIC (Enterobacter cloacae [26]) was 0.5 µg/mL (≈ 0.915 µM) and the MIC (Klebsiella pneumoniae [27]) was > 64 µg/mL. For the same compound, the MIC (Klebsiella pneumoniae [28]) was 8 µg/mL (≈ 14.6 µM), the MIC (Escherichia coli [29]) was 4 µg/mL (≈ 7.32 µM) and the MIC (Pseudomonas aeruginosa [30]) was 32 µg/mL (≈ 58.5 µM). The MIC (Acinetobacter baumannii [31]) was > 64 µg/mL, the MIC (Escherichia coli [32]) was 16 µg/mL (≈ 29.3 µM) and the MIC (Acinetobacter baumannii [33]) was > 64 µg/mL. The MIC (Escherichia coli [34]) was 2 µg/mL (≈ 3.66 µM), the MIC (Klebsiella pneumoniae [35]) was 0.125 µg/mL (≈ 0.229 µM) and the MIC (Acinetobacter baumannii [36]) was > 64 µg/mL. The MIC (Klebsiella pneumoniae [37]) was 64 µg/mL (≈ 117 µM), the MIC (Escherichia coli [38]) was 16 µg/mL (≈ 29.3 µM) and the MIC (Klebsiella aerogenes [39]) was 16 µg/mL (≈ 29.3 µM). The MIC (Escherichia coli [40]) was 2 µg/mL (≈ 3.66 µM), the MIC (Klebsiella pneumoniae [41]) was 16 µg/mL (≈ 29.3 µM) and the MIC (Escherichia coli [42]) was 8 µg/mL (≈ 14.6 µM). The MIC (Klebsiella pneumoniae [43]) was > 64 µg/mL, the MIC (Acinetobacter baumannii [44]) was > 64 µg/mL and the MIC (Escherichia coli [45]) was 0.5 µg/mL (≈ 0.915 µM). It also gave an MIC (Klebsiella aerogenes [46]) of 0.5 µg/mL (≈ 0.915 µM), an MIC (Enterobacter cloacae [47]) of 64 µg/mL (≈ 117 µM) and an MIC (Klebsiella aerogenes [48]) of 8 µg/mL (≈ 14.6 µM). For the same compound, the MIC (Escherichia coli [49]) was 64 µg/mL (≈ 117 µM), the MIC (Pseudomonas aeruginosa [50]) was 0.125 µg/mL (≈ 0.229 µM) and the MIC (Klebsiella aerogenes [51]) was 16 µg/mL (≈ 29.3 µM). For the same compound, the MIC (Klebsiella pneumoniae [52]) was > 64 µg/mL, the MIC (Pseudomonas aeruginosa [53]) was 32 µg/mL (≈ 58.5 µM) and the MIC (Escherichia coli [54]) was 8 µg/mL (≈ 14.6 µM).
